Data as given in ChEMBL document CHEMBL5053549, “Discovery of Potent and Novel Dual PARP/BRD4 Inhibitors for Efficient Treatment of Pancreatic Cancer” (J Med Chem, 2021).
Activity calls are given as the source filed them. The calls are words filed in the database; no cut-off is given here.

Experiments:
SW1990 [1] = experiment: Effect on cell cycle progression in human SW1990 cells assessed as reduction in Olaparib-induced PLK1 expression at 1 uM after 4 days in presence of Olaparib by Q-PCR analysis; format: functional, cell-based; conditions: time 4.0 day
Mus musculus [2] = experiment: In vivo inhibition of PARP1 expression in human […] cells xenografted in BALB/c mouse assessed as reversal of Olaparib-induced PARP1 accumulation at 15 mg/kg, ip administered for 28 consecutive days in presence of 45 mg/kg Olaparib by Western blot analysis; format: functional, organism-based; conditions: time 28.0 day
Mus musculus [3] = experiment: In vivo inhibition of BRD4 expression in human SW1900 cells xenografted in BALB/c mouse assessed as reversal of Olaparib-induced BRD4 accumulation at 15 mg/kg, ip administered for 28 consecutive days in presence of 45 mg/kg Olaparib by Western blot analysis; format: functional, organism-based; conditions: time 28.0 day
SW1990 [4] = experiment: Inhibition of homologous recombinant repair in human SW1990 cells assessed as reduction in Olaparib-induced FOXM1 expression at 1 uM after 4 days in presence of Olaparib by Western blot analysis; format: functional, cell-based; conditions: time 4.0 day
Mus musculus [5] = experiment: In vivo inhibition of BRD4 expression in human SW1900 cells xenografted in BALB/c mouse assessed as reversal of Olaparib-induced BRD4 accumulation at 15 mg/kg, ip administered for 28 consecutive days in presence of 45 mg/kg Olaparib by immunohistochemical analysis; format: functional, organism-based; conditions: time 28.0 day
Mus musculus [6] = experiment: Toxicity in BALB/c mouse xenografted with human SW1990 cells assessed as liver damage at 15 mg/kg, ip administered for 28 consecutive days in presence of 45 mg/kg Olaparib; format: organism-based; conditions: in vivo, 672 h, time 28 day
SW1990 [7] = experiment: Effect on cell cycle progression in human SW1990 cells assessed as reduction in Olaparib-induced CDK6 expression at 1 uM after 4 days in presence of Olaparib by Q-PCR analysis; format: functional, cell-based; conditions: time 4.0 day
Mus musculus [8] = experiment: In vivo inhibition of BRD4 expression in human SW1900 cells xenografted in BALB/c mouse assessed as reversal of Olaparib-induced BRD4 accumulation at 15 mg/kg, ip administered for 28 consecutive days in presence of 45 mg/kg Olaparib by Q-PCR analysis; format: functional, organism-based; conditions: time 28.0 day
SW1990 [9] = experiment: Induction of cell cycle arrest in human SW1990 cells assessed as accumulation of cells at S phase at 1 uM incubated for 4 days in presence of 3 uM Olaparib by propidium iodide staining based flow cytometry (reference value: 29.32%); format: functional; conditions: time 4 day
Mus musculus [10] = experiment: Toxicity in BALB/c mouse xenografted with human SW1990 cells assessed as heart damage at 15 mg/kg, ip administered for 28 consecutive days in presence of 45 mg/kg Olaparib; format: organism-based; conditions: in vivo, 672 h, time 28 day
SW1990 [11] = experiment: Inhibition of homologous recombinant repair in human SW1990 cells assessed as reduction in c-Myc expression at 4 uM after 4 days by Western blot analysis; format: functional, cell-based; conditions: time 4.0 day
SW1990 [12] = experiment: Inhibition of homologous recombinant repair in human SW1990 cells assessed as reduction in c-Myc expression at 4 uM after 4 days by Q-PCR analysis; format: functional, cell-based; conditions: time 4.0 day
[13] = molecular target: T1, Bromodomain-containing protein 4 (Homo sapiens, UniProt O60885); experiment: Inhibition of recombinant BRD4 (unknown origin) at 1 uM incubated for 120 mins by TR-FRET assay relative to control
Mus musculus [14] = experiment: Effect on cell cycle progression in human SW1990 cells xenografted in BALB/c mouse assessed as reduction in CDK6 expression at 45 mg/kg, ip after 4 days by Western blot analysis; format: functional, organism-based; conditions: time 4.0 day
SW1990 [15] = experiment: Antitumor activity against human SW1990 cells xenografted in BALB/c mouse assessed as inhibition of tumor growth at 45 mg/kg, ip administered for 28 consecutive days and measured every 3 days by vernier caliper method; format: functional, organism-based; conditions: time 28.0 day
SW1990 [16] = experiment: Induction of apoptosis in human SW1990 cells assessed as early apoptotic cells at 1 uM after 4 days by Annexin V-FITC and propidium iodide staining based flow cytometry (reference value: […]%); format: functional; conditions: time 4 day
SW1990 [17] = experiment: Induction of apoptosis in human SW1990 cells assessed as necrotic cells at 1 uM after 4 days by Annexin V-FITC and propidium iodide staining based flow cytometry (reference value: 1.89%); format: functional; conditions: time 4 day
SW1990 [18] = experiment: Inhibition of homologous recombinant repair in human SW1990 cells assessed as reduction in BRCA1 expression at 1 to 2 uM after 4 days by Western blot analysis; format: functional, cell-based; conditions: dose 1-2 µM, time 4.0 day
SW1990 [19] = experiment: Induction of autophagy in human SW1990 cells xenografted in BALB/c mouse assessed as increase in beclin1 expression at 45 mg/kg, ip after 4 days by Q-PCR analysis; format: functional, organism-based; conditions: time 4.0 day
SW1990 [20] = experiment: Inhibition of homologous recombinant repair in human SW1990 cells assessed as reduction in FOXM1 expression at 1 to 2 uM after 4 days by Q-PCR analysis; format: functional, cell-based; conditions: dose 1-2 µM, time 4.0 day
[21] = molecular target: Poly [ADP-ribose] polymerase 2 (Homo sapiens, UniProt Q9UGN5); experiment: Inhibition of recombinant PARP2 (unknown origin) incubated for 45 mins in presence of biotinylated-NAD+ by ELISA
Sequence of Poly [ADP-ribose] polymerase 2 (Q9UGN5 whole entry): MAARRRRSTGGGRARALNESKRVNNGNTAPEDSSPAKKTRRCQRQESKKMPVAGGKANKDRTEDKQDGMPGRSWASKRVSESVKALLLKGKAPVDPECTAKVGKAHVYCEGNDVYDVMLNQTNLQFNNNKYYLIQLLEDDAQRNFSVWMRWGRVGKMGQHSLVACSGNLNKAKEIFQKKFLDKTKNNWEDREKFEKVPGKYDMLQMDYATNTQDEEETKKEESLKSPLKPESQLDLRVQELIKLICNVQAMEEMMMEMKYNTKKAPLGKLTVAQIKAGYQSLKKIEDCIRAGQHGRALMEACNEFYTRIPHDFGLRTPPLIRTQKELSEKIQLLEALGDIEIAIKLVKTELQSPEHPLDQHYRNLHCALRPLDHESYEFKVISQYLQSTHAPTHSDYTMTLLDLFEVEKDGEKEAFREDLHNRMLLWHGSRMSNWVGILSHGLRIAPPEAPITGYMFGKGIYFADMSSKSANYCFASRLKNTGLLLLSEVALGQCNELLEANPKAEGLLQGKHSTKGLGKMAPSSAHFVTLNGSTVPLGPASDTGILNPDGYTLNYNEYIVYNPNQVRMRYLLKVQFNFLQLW

Mus musculus [22] = experiment: Effect on cell cycle progression in human SW1990 cells xenografted in BALB/c mouse assessed as reduction in CDK6 expression at 45 mg/kg, ip after 4 days by Q-PCR analysis; format: functional, organism-based; conditions: time 4.0 day
SW1990 [23] = experiment: Induction of cell cycle arrest in human SW1990 cells assessed as accumulation of cells at S phase at 2 uM incubated for 4 days by propidium iodide staining based flow cytometry (reference value: 29.32%); format: functional; conditions: time 4 day
SW1990 [24] = experiment: Inhibition of colony formation in human SW1990 cells at 1 uM after 14 days by crystal violet staining based microscopic analysis; format: functional, cell-based; conditions: time 14.0 day
Mus musculus [25] = experiment: Toxicity in BALB/c mouse xenografted with human SW1990 cells assessed as liver damage at 45 mg/kg, ip administered for 28 consecutive days by H and E staining based […] microscopic analysis; format: organism-based; conditions: in vivo, 672 h, time 28 day
SW1990 [26] = experiment: Induction of autophagy in human SW1990 cells xenografted in BALB/c mouse assessed as increase in LC3B expression at 45 mg/kg, ip after 4 days by Western blot analysis; format: functional, organism-based; conditions: time 4.0 day
[27] = molecular target: T1, Bromodomain-containing protein 4; experiment: Inhibition of recombinant BRD4 BD2 (unknown origin) incubated for 120 mins by TR-FRET assay
Mus musculus [28] = experiment: Effect on cell cycle progression in human SW1990 cells xenografted in BALB/c mouse assessed as reduction in CCND1 expression at 45 mg/kg, ip after 4 days by Q-PCR analysis; format: functional, organism-based; conditions: time 4.0 day
SW1990 [29] = experiment: Effect on cell cycle progression in human SW1990 cells assessed as reduction in CDK6 expression at 1 to 2 uM after 4 days by Western blot analysis; format: functional, cell-based; conditions: dose 1-2 µM, time 4.0 day
SW1990 [30] = experiment: Induction of apoptosis in human SW1990 cells assessed as necrotic cells at 2 uM after 4 days by Annexin V-FITC and propidium iodide staining based flow cytometry (reference value: 1.89%); format: functional; conditions: time 4 day
SW1990 [31] = experiment: Effect on cell cycle progression in human SW1990 cells assessed as reduction in CCND1 expression at 1 to 2 uM after 4 days by Q-PCR analysis; format: functional, cell-based; conditions: dose 1-2 µM, time 4.0 day
[32] = molecular target: Bromodomain-containing protein 3 (Homo sapiens, UniProt Q15059); experiment: Inhibition of recombinant BRD3 BD1 (unknown origin) incubated for 120 mins by TR-FRET assay
Sequence of Bromodomain-containing protein 3 (Q15059 whole entry): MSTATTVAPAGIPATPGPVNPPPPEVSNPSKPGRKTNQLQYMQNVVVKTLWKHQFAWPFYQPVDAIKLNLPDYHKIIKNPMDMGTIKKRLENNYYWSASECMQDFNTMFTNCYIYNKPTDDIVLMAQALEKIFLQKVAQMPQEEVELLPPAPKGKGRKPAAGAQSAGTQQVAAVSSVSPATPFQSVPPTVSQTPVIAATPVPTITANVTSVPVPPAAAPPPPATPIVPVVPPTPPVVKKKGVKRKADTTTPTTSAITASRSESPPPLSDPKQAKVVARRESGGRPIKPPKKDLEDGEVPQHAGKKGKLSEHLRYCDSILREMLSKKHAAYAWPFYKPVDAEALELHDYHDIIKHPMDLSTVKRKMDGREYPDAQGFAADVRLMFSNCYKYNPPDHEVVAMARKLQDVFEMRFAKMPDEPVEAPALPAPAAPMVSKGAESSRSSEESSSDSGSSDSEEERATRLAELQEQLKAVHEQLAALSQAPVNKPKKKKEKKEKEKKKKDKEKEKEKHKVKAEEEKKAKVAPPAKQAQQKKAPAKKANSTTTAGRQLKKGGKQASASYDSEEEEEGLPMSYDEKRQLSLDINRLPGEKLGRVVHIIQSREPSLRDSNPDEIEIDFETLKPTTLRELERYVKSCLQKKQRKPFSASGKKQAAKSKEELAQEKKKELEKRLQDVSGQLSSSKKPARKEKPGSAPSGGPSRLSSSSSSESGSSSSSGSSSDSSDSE

Compound: Cc1sc2c(c1C)C(c1ccc(Cl)cc1)=N[C@@H](CC(=O)OC(C)(C)C)c1nnc(C)n1-2
- Activity (SW1990 [1]): Active
- Activity (Mus musculus [2]): Active
- Activity (Mus musculus [3]): Active
- inhibition (SW1990 [4]): Active
- Activity (Mus musculus [5]): Active
- Activity (Mus musculus [6]): Non-Toxic
- Activity (SW1990 [7]): Active
- Activity (Mus musculus [8]): Active
- Activity (SW1990 [9]): 19.33%
- Activity (Mus musculus [10]): Non-Toxic
- inhibition (SW1990 [11]): Active
- inhibition (SW1990 [12]): Active

Compound: CC[C@@H]1C(=O)N(C)c2cnc(N(C)c3ccc(-c4nc5c(C(N)=O)cccc5[nH]4)cc3OC)nc2N1C1CCCC1
- inhibition [13]: 76.2%
- Activity (Mus musculus [14]): Active
- Activity (SW1990 [15]): Active
- Activity (SW1990 [16]): 1.71%
- Activity (SW1990 [17]): 3.41%
- inhibition (SW1990 [18]): Active
- Activity (SW1990 [19]): Active
- inhibition (SW1990 [20]): Active
- IC50 [21]: 4.7 nM
- Activity (Mus musculus [22]): Active
- Activity (SW1990 [23]): 9.21%
- inhibition (SW1990 [24]): Active
- Activity (Mus musculus [25]): Non-Toxic
- Activity (SW1990 [26]): Active
- IC50 [27]: 157 nM
- Activity (Mus musculus [28]): Active
- Activity (SW1990 [29]): Active
- Activity (SW1990 [30]): 4.56%
- Activity (SW1990 [31]): Active
- IC50 [32]: 166 nM
